US20250129067A1 (Progentos Therapeutics, Inc., priority 2021, published 2025)

Key:
PDGFRα = PDGFRα (Homo sapiens (Human), UniProt P16234); experiment: PDGFRα kinase enzyme assay (Promega PDGFRα Kinase Enzyme System, ADP-Glo); format: biochemical; conditions: 11-point dose response, 10,000 nM to 0.169 nM; 150 uM ATP; BLQ = below limit of quantitation; read-out: IC50 Values on PDGFRα Kinase Inhibition, IC50
Summary of the method: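 Read-out was ADP-Glo: remaining ATP depleted, ADP converted to luminescence and compared with a standard curve.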

[1] = tested on: Oligodendrocyte progenitor cells (OPCs); experiment: In vitro OPC differentiation assay, MBP expression (immunocytochemistry); conditions: 72 hours of treatment; fold change over vehicle
Description: Cortices from postnatal day (P) 1-3 rats were dissected and collected into ice cold Hank's Balanced Salt Solution (HBSS). […] Briefly, the cortical cell suspension was centrifuged and washed with buffer (0.5% BSA in PBS) and labeled with Anti-A2B5 MicroBeads (10 μL beads per 1×10^7 cells) for 15 minutes at 4° C. Following the incubation, cells were washed once with BSA buffer to remove unlabeled beads. A2B^5 positive cells were eluted on the column using the AutoMACS® (Miltenyi, as per manufacturer's protocol using “possel-s” program). Eluted cells were further washed twice with OPC growth media. Cell count was performed using Countess III cell counter (ThermoFisher; AMQAX2000) and cells were plated.
A2B5+ OPCs were plated in poly-d-lysine (PDL) coated T75 flask at a density of ˜3 million cells per flask. […] TrypLE was normalized by adding 10 mL growth media and cells were centrifuged at 1400 rpm for 10 minutes. […] The plates were allowed to sit at room temperature for 15 minutes to ensure proper dispersion of cells in a well. The plates were then transferred to the incubator (37° C.; 5% CO2).
Cells were then incubated for 72 hours at 37° C., 5% CO2 before immunostaining for MBP marker expression.
Following 72 hours of treatment, cells were fixed with 4% paraformaldehyde for 15 minutes then washed three times in DPBS. Prior to staining, cells were blocked for 15 minutes in 10% normal goat serum containing 1% BSA and 0.1% Triton X-100 in DPBS. Primary antibody (MBP @ 1:2000; Abcam AB7349) was applied to cells overnight at 4° C. in incubation solution containing 1% normal goat serum, 1% BSA, and 0.1% Triton X-100 in DPBS.
The number of differentiated MBP+ cells was normalized to the total nuclei count and percent differentiated MBP+ cells were reported.

[2] = tested on: Oligodendrocyte progenitor cells (OPCs); experiment: In vitro OPC differentiation assay, GPR17 expression (immunocytochemistry); conditions: 72 hours, fold change over vehicle; for GPR17 Fold Induction (Over Vehicle; 3 μM): 3 μM (10× concentration, final 0.3 μM); for GPR17 Fold Induction (Over Vehicle; 5 μM): 5 μM (10× concentration, final 0.5 μM)

Sequence of PDGFRα (P16234 24-1089): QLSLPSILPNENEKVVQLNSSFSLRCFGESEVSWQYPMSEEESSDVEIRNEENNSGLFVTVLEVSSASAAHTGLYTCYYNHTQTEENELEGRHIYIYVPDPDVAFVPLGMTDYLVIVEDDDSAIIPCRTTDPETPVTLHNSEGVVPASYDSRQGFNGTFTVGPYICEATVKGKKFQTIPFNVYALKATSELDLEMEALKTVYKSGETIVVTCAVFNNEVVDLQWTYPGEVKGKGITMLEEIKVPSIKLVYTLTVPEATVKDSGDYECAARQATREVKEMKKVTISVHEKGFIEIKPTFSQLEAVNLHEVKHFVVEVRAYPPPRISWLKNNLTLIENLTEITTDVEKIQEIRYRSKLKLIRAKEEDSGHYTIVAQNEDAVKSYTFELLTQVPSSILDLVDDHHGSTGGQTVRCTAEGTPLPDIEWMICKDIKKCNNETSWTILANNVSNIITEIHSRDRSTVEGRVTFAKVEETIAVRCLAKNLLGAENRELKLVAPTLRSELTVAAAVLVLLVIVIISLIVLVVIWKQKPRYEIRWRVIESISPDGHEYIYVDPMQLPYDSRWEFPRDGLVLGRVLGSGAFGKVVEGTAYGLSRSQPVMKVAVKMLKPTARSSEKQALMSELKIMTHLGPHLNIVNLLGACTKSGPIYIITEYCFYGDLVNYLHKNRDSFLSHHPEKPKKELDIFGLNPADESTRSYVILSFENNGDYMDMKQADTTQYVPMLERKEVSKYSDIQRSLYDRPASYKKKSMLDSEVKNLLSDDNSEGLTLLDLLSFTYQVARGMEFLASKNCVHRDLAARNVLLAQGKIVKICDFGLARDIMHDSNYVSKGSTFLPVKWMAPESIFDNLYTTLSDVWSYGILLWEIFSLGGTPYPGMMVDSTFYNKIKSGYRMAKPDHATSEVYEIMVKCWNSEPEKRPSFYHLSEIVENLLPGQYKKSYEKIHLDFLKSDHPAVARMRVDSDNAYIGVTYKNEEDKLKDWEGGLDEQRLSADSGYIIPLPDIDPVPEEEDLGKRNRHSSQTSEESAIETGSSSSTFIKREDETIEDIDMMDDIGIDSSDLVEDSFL

SMILES	IC50 (PDGFRα)	MBP Fold Induction (Over vehicle) [1]	GPR17 Fold Induction (Over Vehicle; 3 μM) [2]	GPR17 Fold Induction (Over Vehicle; 5 μM) [2]
C[C@H](OC(=O)N1CCN(c2cnn3cc(-c4cnn(C)c4)ccc23)CC1)c1ccccc1 [Compound 34, (S)-1-phenylethyl 4-(6-(1-methyl-1H-pyrazol-4-yl)pyrazolo[1,5-a]pyridin-3-yl)piperazine-1-carboxylate]	0.785 µM	2.00	5.16	5.12
Cn1cc(-c2ccc3c(N4CCC(c5ncc(Cc6ccccc6)cn5)C4)cnn3c2)cn1 (stereo not shown) [Compound 36, 3-[3-(5-benzylpyrimidin-2-yl)pyrrolidin-1-yl]-6-(1-methyl-1H-pyrazol-4-yl)pyrazolo[1,5-a]pyridine]	0.685 µM	1.92	7.08	5.22
C[C@@H](OC(=O)N1CCN(c2cnn3nc(-c4cnn(C)c4)ccc23)CC1)c1ccccc1 [Compound 50, (R)-1-phenylethyl 4-(6-(1-methyl-1H-pyrazol-4-yl)pyrazolo[1,5-b]pyridazin-3-yl)piperazine-1-carboxylate]	3.14 µM	1.82	5.00	
Cn1cc(-c2ccc3c(NC4CN(c5ncc(Cc6ccccc6)cn5)C4)cnn3c2)cn1 [Compound 131, N-(1-(5-benzylpyrimidin-2-yl)azetidin-3-yl)-6-(1-methyl-1H-pyrazol-4-yl)pyrazolo[1,5-a]pyridin-3-amine]	3.88 µM	2.49	6.36	
Cn1cc(-c2ccc3c(N4CCN(c5ccc(Cc6ccccc6)cc5)CC4)cnn3c2)cn1 [Compound 150, 3-(4-(4-benzylphenyl)piperazin-1-yl)-6-(1-methyl-1H-pyrazol-4-yl)pyrazolo[1,5-a]pyridine]	1.14 µM	2.93	4.10	
CN(Cc1ccccc1)S(=O)(=O)N1CCN(c2cnn3cc(-c4cnn(C)c4)ccc23)CC1 [Compound 158, N-benzyl-N-methyl-4-(6-(1-methyl-1H-pyrazol-4-yl)pyrazolo[1,5-a]pyridin-3-yl)piperazine-1-sulfonamide]	> 10 µM	4.88	4.57	
Cn1cc(-c2ccc3c(N4CCN(c5ncc(Cc6c[nH]c7ccccc67)cn5)CC4)cnn3c2)cn1 [Compound 173, 3-[(2-{4-[6-(1-methylpyrazol-4-yl)pyrazolo[1,5-a]pyridin-3-yl]piperazin-1-yl}pyrimidin-5-yl)methyl]-1H-indole]	1.1 µM	0.49	6.75	
CC(C)C(O)c1cnc(N2CCN(c3cnn4cc(-c5cnn(C)c5)ccc34)CC2)nc1 (stereo not shown) [Compound 176, 2-methyl-1-(2-{4-[6-(1-methyl-1H-pyrazol-4-yl)pyrazolo[1,5-a]pyridin-3-yl]piperazin-1-yl}pyrimidin-5-yl)propan-1-ol]	2.08 µM	1.48	3.90	
CC(C)Cc1cnc(N2CCN(c3cnn4cc(-c5cnn(C)c5)ccc34)CC2)nc1 [Compound 189, 3-(4-(5-isobutylpyrimidin-2-yl)piperazin-1-yl)-6-(1-methyl-1H-pyrazol-4-yl)pyrazolo[1,5-a]pyridine]	5.28 µM	4.70	7.61	

More lines, now with the values ahead:

IC50 (PDGFRα)	MBP Fold Induction (Over vehicle) [1]	GPR17 Fold Induction (Over Vehicle; 3 μM) [2]	GPR17 Fold Induction (Over Vehicle; 5 μM) [2]	SMILES
0.32 µM	2.96	10.59	6.99	Cn1cc(-c2ccc3c(N4CCN(C(=O)OC5CCC5)CC4)cnn3c2)cn1 [Compound 32, cyclobutyl 4-[6-(1-methyl-1H-pyrazol-4-yl)pyrazolo[1,5-a]pyridin-3-yl]piperazine-1-carboxylate]
0.00717 µM	2.44	13.76	7.14	C[C@@H](OC(=O)N1CCN(c2cnn3cc(-c4cnn(C)c4)ccc23)CC1)c1ccccc1 [Compound 33, (R)-1-phenylethyl 4-(6-(1-methyl-1H-pyrazol-4-yl)pyrazolo[1,5-a]pyridin-3-yl)piperazine-1-carboxylate]
0.673 µM	2.95	5.81	7.65	Cn1cc(-c2ccc3c(N4CCCN(c5ncc(Cc6ccccc6)cn5)CC4)cnn3c2)cn1 [Compound 37, 3-[4-(5-benzylpyrimidin-2-yl)-1,4-diazepan-1-yl]-6-(1-methyl-1H-pyrazol-4-yl)pyrazolo[1,5-a]pyridine]
0.639 µM	1.75	4.28	3.74	Cn1cc(-c2cn3ncc(N4CCN(C(=O)OC(C)(C)C)CC4)c3cn2)cn1 [Compound 44, Tert-butyl 4-[6-(1-methyl-1H-pyrazol-4-yl)pyrazolo[1,5-a]pyrazin-3-yl)piperazine-1-carboxylate]
0.423 µM	2.41	5.14	2.52	Cn1cc(-c2ccc3c(C4=CCN(c5ncc(Cc6ccccc6)cn5)C4)cnn3c2)cn1 [Compound 51, 3-[1-(5-benzylpyrimidin-2-yl)-2,5-dihydro-1H-pyrrol-3-yl]-6-(1-methyl-1H-pyrazol-4-yl)pyrazolo[1,5-a]pyridine]
0.67 µM	1.71	5.18		Cn1cc(-c2ccc3c(N4CCN(c5ncc(Cc6ccc(Cl)cc6)cn5)CC4)cnn3c2)cn1 [Compound 65, 3-{4-[5-(4-chlorobenzyl)pyrimidin-2-yl]piperazin-1-yl}-6-(1-methyl-1H-pyrazol-4-yl)pyrazolo[1,5-a]pyridine]
0.00527 µM	25.00	9.66		Cn1cc(-c2ccc3c(N4CCN(c5ncc(C(O)c6ccccc6)cn5)CC4)cnn3c2)cn1 (stereo not shown) [Compound 71, (2-{4-[6-(1-Methyl-1H-pyrazol-4-yl)pyrazolo[1,5-a]pyridin-3-yl]piperazin-1-yl}pyrimidin-5-yl)(phenyl)methanol]
0.563 µM	5.83	7.19		Cn1cc(-c2cnc3c(N4CCN(c5ncc(C(O)c6ccc(F)cc6)cn5)CC4)cnn3c2)cn1 (stereo not shown) [Compound 74, (4-Fluorophenyl)(2-{4-[6-(1-methyl-1H-pyrazol-4-yl)pyrazolo[1,5-a]pyrimidin-3-yl]piperazin-1-yl}pyrimidin-5-yl)methanol]
